Values after ≈ are worked out from the molar mass of the structure shown.
Legend:
Staphylococcus aureus [1] = test: In vivo efficacy against Staphylococcus aureus WCUH29 in a Groin Abscess infection in rats at a dose of 50 mg/kg; log10 cfu; assay type: functional
Enterococcus faecalis [2] = test: In vitro minimum inhibitory activity against Enterococcus faecalis 7 strain; assay type: functional
Staphylococcus aureus [3] = test: In vitro minimum inhibitory activity against Staphylococcus aureus WCUH29 strain; assay type: functional
Enterococcus faecalis [4] = test: In vitro minimum inhibitory activity against Enterococcus faecalis 1 strain; assay type: functional
Enterococcus faecalis [5] = test: MIC required to inhibit 90% of the growth of Enterococcus faecalis (n = 10); assay type: functional
Enterococcus faecium = test: MIC required to inhibit 90% of the growth of Enterococcus faecium (n = 10); assay type: functional
Staphylococcus aureus [6] = test: MIC required to inhibit 90% of the growth of Staphylococcus aureus (n = 31); assay type: functional
Staphylococcus aureus [7] = test: In vitro minimum inhibitory activity against Staphylococcus aureus Oxford strain; assay type: functional
[8] = tested on: Staphylococcus epidermidis; test: MIC required to inhibit 90% of the growth of Staphylococcus epidermidis (n = 10); assay type: functional
Staphylococcus aureus [9] = test: In vivo efficacy against Staphylococcus aureus WCUH29 in a Groin Abscess infection in rats at a dose of 21 mg/kg; log10 cfu; assay type: functional
Nucleic Acid = test: In vitro inhibitory concentration against tRNA synthetases, in a pyrophosphate exchange assay; assay type: functional, Staphylococcus aureus
Staphylococcus aureus [10] = test: In vitro inhibitory concentration against Staphylococcus aureus Methionyl tRNA synthetase; assay type: functional
Staphylococcus aureus [11] = test: In vitro antibacterial activity and competitive kinetics with respect to methionine; assay type: functional, organism-based

Structure (SMILES) | Bacterial counts (Staphylococcus aureus [1]) | MIC (Enterococcus faecalis [2]) [µg/mL] | MIC (Staphylococcus aureus [3]) [µg/mL] | MIC (Enterococcus faecalis [4]) [µg/mL] | MIC90 (Enterococcus faecalis [5]) [µg/mL] | MIC90 (Enterococcus faecium) [µg/mL] | MIC90 (Staphylococcus aureus [6]) [µg/mL] | MIC (Staphylococcus aureus [7]) [µg/mL] | MIC90 [8] [µg/mL] | Bacterial counts (Staphylococcus aureus [9]) | IC50 (Nucleic Acid) [nM] | IC50 (Staphylococcus aureus [10]) [nM] | Ki (Staphylococcus aureus [11]) [nM]
CC[C@H]1OC(=O)[C@H](C)[C@@H](O[C@H]2C[C@@](C)(OC)[C@@H](O)[C@H](C)O2)[C@H](C)[C@@H](O[C@@H]2O[C@H](C)C[C@H](N(C)C)[C@H]2O)[C@](C)(O)C[C@@H](C)C(=O)[C@H](C)[C@@H](O)[C@]1(C)O [ERYTHROMYCIN] | 3.7 |  |  |  |  |  |  |  |  |  |  |  | 
C/C(=C\C(=O)OCCCCCCCCC(=O)O)C[C@@H]1OC[C@H](C[C@@H]2O[C@H]2[C@@H](C)[C@H](C)O)[C@@H](O)[C@H]1O [MUPIROCIN] |  | 64 (≈ 128 µM) | 0.25 (≈ 0.499 µM) | 64 (≈ 128 µM) |  |  |  |  |  |  |  |  | 
CCc1cc(I)c2c(c1)C(NCCCNc1cc(=O)c3ccccc3[nH]1)CCN2 (configuration not stated) |  | 0.125 (≈ 0.249 µM) | 0.25 (≈ 0.498 µM) | < 0.06 | 0.25 (≈ 0.498 µM) | 0.06 (≈ 0.119 µM) | 1 (≈ 1.99 µM) | 0.25 (≈ 0.498 µM) | 1 (≈ 1.99 µM) | 3.9 | 1.4 |  | 
O=c1cc(NCCCNCc2ccc(Cl)c(Cl)c2)[nH]c2ccccc12 |  | 2 (≈ 5.32 µM) | 8 (≈ 21.3 µM) | 2 (≈ 5.32 µM) |  |  |  | 4 (≈ 10.6 µM) |  |  |  | 16 | 5
CC1(C)S[C@@H]2[C@H](NC(=O)[C@H](N)c3ccc(O)cc3)C(=O)N2[C@H]1C(=O)O [AMOXICILLIN] |  | 0.5 (≈ 1.37 µM) | > 64 | 0.5 (≈ 1.37 µM) | > 16 | > 16 | > 16 | 0.125 (≈ 0.342 µM) | 8 (≈ 21.9 µM) |  |  |  | 
Oc1cc(NCCCNC2CCNc3c(Br)cc(Br)cc32)nc2ccccc12 (configuration not stated) |  | < 0.06 | 0.125 (≈ 0.247 µM) | < 0.06 | 0.03 (≈ 0.0593 µM) | < 0.016 | 0.5 (≈ 0.988 µM) | < 0.06 | 0.5 (≈ 0.988 µM) |  |  | 8 | 

From ChEMBL document CHEMBL1135403, “Nanomolar inhibitors of Staphylococcus aureus methionyl tRNA synthetase with potent antibacterial activity against gram-positive pathogens” (J Med Chem, 2002)
